The values that follow come from patent US20080269121A1, “Methods and Compositions Involving A1c Subunit of L-Type Calcium Channels in Smooth Muscle Cells” (The Board of Regents of the University of Texas System, priority 2005, published 2008).

“Also recorded” adds a separate entry of the source.

One assay relates to p38. Description: MAP kinase phosphorylation: p38. The assay is classed as cell-based.
A further assay has as its system CRE1 and CRE2. Description: Oligonucleotide agarose conjugate pull-down of CREB. The assay is classed as cell-based, human. To be noted: FIG. 10.
A further assay relates to p65 subunit. Description: Nuclear abundance and binding of NF-κB p65 in HCCSMC. The format is cell-based, human. Here is the method:
Cytoplasmic and nuclear protein, and RNA extraction: Cytoplasmic and nuclear proteins were prepared as described earlier by Shi et al. Briefly, the cells were washed twice with phosphate-buffered saline solution and then with buffer A (in mM: 10 HEPES, 1.5 MgCl2, 10 KCl, 0.5 dithiothreitol, 0.5 phenylmethylsulfrenyl fluoride [PMSF]; 10 ng/mL leupeptin, and 10 ng/mL aprotinin). The cells were resuspended in 25 μL of buffer A containing 0.25% NP-40 and incubated at 4° C. for 10 minutes. After centrifugation at 12,000 g for 10 minutes, the supernatant was collected as cytoplasmic extract. The nuclear pellet was resuspended in 20 μL of buffer C (in mM: 20 HEPES, […], 1.5 MgCl2, 0.2 ethylenediaimetetraacetic acid (EDTA), 0.5 DTT, 0.5 PMSF; 24% glycerol, 10 ng/mL leupeptin, and 10 ng/mL aprotinin) and incubated on ice with frequent vortexing for 15 minutes. The samples were centrifuged at 14,000 g for 10 minutes, and the supernatant (nuclear extract) was transferred to a fresh tube with 5 volumes of buffer D (in mM: 20 HEPES, 0.2 EDTA, 50 KCl, 0.5 DTT, 0.5 PMSF; 20% glycerol, 10 ng/mL leupeptin, and 10 ng/mL aprotinin). The protein concentration was determined by using the Bio-Rad assay kit (Bio-Rad Laboratories, Hercules, Calif.).
Electrophoretic mobility shift assay. […]

Assay [1] has as its system α1C subunit of L-type Ca^2+ channels. The assay can be described thus: Q-PCR of α1C mRNA expression in HCCSMC. The format is cell-based, human. The text has this:
Primary cultures of HCCSMC: Human tissue was obtained from the descending and sigmoid colons with approval of the University of Texas Medical Branch Institutional Review Board from disease free margins of resected segments from patients undergoing surgery for colon cancer. The circular muscle layer was separated from the taenia coli and lamina propria with a tissue slicer. The circular muscle layer was collected in ice-cold HEPES buffer (in mM: 120 NaCl, 2.6 KH2S04, 4 KCl, 2 CaCl2, 0.6 MgCl2, 25 HEPES, 14 glucose and 2.1% essential amino acid mixture, pH 7.4). Two successive digestions with papain and collagenase, as described previously by Shi and Sarna, were used to disperse smooth muscle cells. The cells were cultured in RPMI 1640 (Gibco/Invitrogen, Carlsbad, Calif.) supplemented with 10% fetal bovine serum in the presence of 100 units/mL of penicillin G, 100 μg/mL of streptomycin sulfate and 0.25 μg/mL of amphoteracin B. The culture medium was changed every three days. Cells in passages 3 to 5 were used in all experiments. All cells were cultured in serum-free medium for at least 15 h prior to experiments to eliminate the possible effects of growth factors. […] The cultures of colonic smooth muscle cells retain their contractile phenotype. Each experiment used cells or muscle strips from at least three different subjects.
Total RNA was extracted from cells using the Qiagen RNeasy kit (Qiagen, Valencia, Calif.) by following the manufacturer's protocol. The cDNAs were made using the Superscript First-Strand Synthesis System (Invitrogen, Carlsbad, Calif.).
Quantitive real-time-polymerase chain reaction (Q-PCR). Q-PCR assay is employed to determine gene expression using TaqMan technology on Applied Biosystems 7000 sequence detection system (UTMB Real-time PCR Core Facility). Applied Biosystems Assays-By-Design containing a 20× assay mix of primers and TaqMan MGB probes (FAMTM dye-labeled) are used for a target gene and the endogenous control, human 18s RNA. These assays were designed using primers that span exon-exon junctions so as not to detect genomic DNA. All primer and probe sequences were searched against the Celera data base to confirm specificity. The primer and probe sequences used were as follows: human Cav1.2 channel oα1C intermediate form (Cav1.2b) probe spanning exon 1b and exon 2, […] (SEQ ID NO:4): forward primer, […] (SEQ ID NO:5): reverse primer, […] (SEQ ID NO:6). Human Cav1.2 channel α1C long form (Cav1.2a) probe spanning exon 1a and exon 2: […] (SEQ ID NO:7): forward primer, […] (SEQ ID NO:8): reverse primer. […] (SEQ ID NO:6).

The test system of assay [2] is human colonic circular muscle strips. Description: Muscle bath: contractile response of human colonic circular muscle strips. The assay is classed as cell-based. Here is the method:
Muscle bath experiments. Pure circular muscle strips (2 mm×10 mm) are prepared from resected human colon segments. The strips are mounted in 5 ml baths filled with carbonated Krebs solution (in mM: 118 NaCl, 4.7 KCl, 2.5 CaCl2, 1 NaH2PO4, 1-2 MgCl2, 11 D-glucose, and 25 NaHCO3) at 37° C. (Siebenlist et al., 1994; Barnes and Karin, 1997). The muscle strips are equilibrated for 1 h at 1 g tension and then stretched until maximal response is obtained to 10^−4 m ACh. The bathing solution is replaced every 15 min. Contractions are measured by force transducers and analyzed by DATAQ (Akron, Ohio) software.
The protocol for transfection of sense and antisense oligonucleotides in freshly obtained muscle strips was similar to that in HCCSMC. The circular muscle layer was isolated from the fall thickness human colon, and sliced into 2 mm×10 mm muscle strips. The strips were incubated in RPMI 1640 without serum. The sense and antisense oligonucleotides (10 μM) were added into the medium for 24 h before incubation with 20 ng/mL TNFα for 24 h.

In another assay the test system is ERK ½. The assay can be described thus: MAP kinase phosphorylation: ERK ½. The assay is classed as cell-based.
Assay [3] has as its system TNBS (trinitrobenzene sulfonic, acid)-induced colitis. To be noted: systemic bolus injections, mouse; cited from earlier work.

With vasoactive intestinal polypeptide [VIP], the “phosphorylation of p38” value with p38 is listed as “time-dependently dephosphorylated”. The “CREB binding to CRE1 and CRE2” value in the assay with CRE1 and CRE2 was “more CREB binds at both CRE1 and CRE2”. The “abundance of p65 in the nucleus, VIP and TNFα versus TNFα alone” value with p65 subunit is recorded as “did not seem to be different”. In assay [1] (HCCSMC), the “induction of α1C mRNA expression” value is listed as “induced expression; also recorded: enhanced the mRNA of α1C”. Moreover, the “duration of α1C mRNA transcription and translation after treatment” value in assay [1] (HCCSMC, FIG. 3) is on record as “at least 24 h”. In assay [1] (at 6 h, adult human colonic circular smooth muscle cells), the “increase of α1C mRNA” value was “about 50%”. In assay [2] (muscle strips, treatment before/with TNFα), the “effect on TNFα suppression of contractile response to ACh” value is recorded as “significantly reduces the suppression; also recorded: partially reversed the suppression”. In addition, the “contractile response of circular muscle strips to ACh” value in assay [2] (strips incubated 24 h, organ bath) is “enhanced the contractile response to ACh and KCl; also recorded: increased their contractile response to ACh; also recorded: enhanced it”. For the same substance, the “phosphorylation of ERK ½” value in the assay with ERK ½ was “time-dependently dephosphorylated”. In assay [3], the “MPO (myeloperoxidase) activity” value is reported as “did not completely suppress”; the TNBS-induced diarrhea result is on record as “abrogated TNBS-induced diarrhea”; the “macroscopic and microscopic inflammation” value is “reduced macroscopic and microscopic inflammation”.
